Measurements reported in the NIST ThermoML archive (doi:10.1021/acs.jced.8b00372).
± gives the expanded uncertainty stated by the source.

Details: 313.15 K, Ring tensiometer

- surface tension liquid-gas: 67.2 ± 2.8 mN/m
Structure (SMILES): O [water]
